Results: ChEMBL document CHEMBL1157539, “Thousands of chemical starting points for antimalarial lead identification” (Nature, 2010)

Tested on: Plasmodium falciparum
Experiment: GSK_TCMDC: Inhibition of Plasmodium falciparum 3D7 in whole erythrocytes, using parasite LDH activity as an index of growth.
Format: functional, organism-based
Conditions: Plasmodium falciparum, 3D7

| SMILES | XC50 [nM] |
| --- | --- |
| CC1CN(c2cnn(C/C=C/c3ccc(NC(=O)c4ccc(Cl)cc4)cc3)c(=O)c2Cl)CC(C)N1 (stereo not drawn) | 853 |
| CC(C)c1ccc(CN2CCC(CNC(=O)c3cc(-c4cccc(F)c4)cs3)C2)cc1 (stereo not drawn) | 1660 |
| OC(CNCCCCCCNCC(O)c1ccc(Cl)c(Cl)c1)c1ccc(Cl)c(Cl)c1 (stereo not drawn) | 915 |
| Cc1ccc(-c2cncc(-c3cc(NC4CCN(Cc5ccccc5)CC4)nc(-c4ccccc4)n3)c2)cc1 | 720 |
| CN(C)c1ccc2nc(N)nc(N)c2c1Cl | 475 |
| CN(C)C(=S)N/N=C1/C(=O)Nc2ccc(OC(F)(F)F)cc21 | 1020 |
| Cc1cc(C(F)(F)F)n2nc(C(=O)N(Cc3cncn3Cc3ccccc3F)CC3CC3)cc2n1 | 956 |
| CN1CCCC1CCNc1ncc2c(-c3ccc(NC(=O)Nc4cc(C(F)(F)F)ccc4F)c(F)c3)nn(C)c2n1 (stereo not drawn) | 287 |
| CCc1c(CCNCCCCCCNCCc2ccc(Br)cc2)ccc(OC)c1OC | 232 |
| CN(C)CCCN(C)C(=O)c1cc2cc(-c3ccccc3)ccc2n1S(=O)(=O)c1ccccc1 | 462 |
| COc1cc2nc(N3CCN(c4nc(N)c5cc(OC)c(OC)cc5n4)CC3)nc(N)c2cc1OC | 146 |
| CN(Cc1ccc(C#N)cc1)C1CCN(c2cc(NC(=O)c3cccc(F)c3)ccn2)CC1 | 1750 |
| COc1ccc(-n2ncc(C(=O)N3CCC4(C3)C(=O)N(c3ccccc3)c3ccccc34)c2C)cc1 (stereo not drawn) | 932 |
| Cc1[nH]cc(Br)c(=O)c1-c1ccc(Oc2ccc(OC(F)(F)F)cc2)cc1 | 325 |
| C=CCCCNCC(NCCCNc1cc(=O)c2ccccc2[nH]1)c1cc(Br)cc(Br)c1 (stereo not drawn) | 893 |
| COc1cc2nc(N3CCC(CNC(=O)c4ccc(C(C)=O)cc4)CC3)nc(N)c2cc1OC | 1120 |
| COc1ccc2nccc([C@@H](O)CN3CCC(NC(=O)C(c4cc5ccccc5o4)N4CCN(c5ccccc5)CC4)CC3)c2c1 (stereo partly drawn) | 238 |
| Cc1cc(N[C@@H](Cc2ccccc2)C(=O)NCCc2ccccc2)nc(NCc2ccccc2C)n1 | 879 |
| COCCSc1ccc(CC(C)NCC(O)c2cccc(Cl)c2)cc1 (stereo not drawn) | 758 |

| SMILES | XC50 [nM] |
| --- | --- |
| CC(=O)Oc1c(C2CCN(CCCCNC(=O)c3ccc(NC(=O)c4ccc(Cl)cc4)cc3)CC2)ccc2c1CCCC2 | 764 |
| CCCCCCOc1ccc(C(=O)N(Cc2ccccc2)c2c(-c3ccccc3)nc3cc(C)ccn23)cc1 | 774 |
| Cc1cccc(Nc2c(-c3cc(Br)ccc3O)nc3ncccn23)c1 | 206 |
| CC1(C)N=C(N)N=C(N)N1c1cc(Cl)c(Cl)c(Cl)c1 | 11.4 |
| COc1ccc(C(O)CNC(C)CCc2ccc(F)cc2)cc1C(F)(F)F (stereo not drawn) | 747 |
| Cc1[nH]n(-c2cccc(C(F)(F)F)c2)c(=O)c1-c1ccc(Cl)cc1 | 856 |
| O=C(Nc1ccc(N2CCNCC2)cc1)c1ccn2ncc(-c3cccc(Cl)c3)c2n1 | 922 |
| O=C(NC1CCN(Cc2ccccc2)CC1)c1cccc(Nc2nc(-c3ccccc3)cs2)c1 | 1030 |
| CCOc1c(OC)ccc2c1CCN(CCN1CCC(NC(=O)c3ccc(-c4cccc(C(F)(F)F)c4C(F)(F)F)cc3)CC1)C2 | 728 |
| Cc1cc(=NN=Cc2ccccc2F)c2cc(C(F)(F)F)ccc2[nH]1 | 433 |
| Clc1ccc(OC2CCC(Cn3ccnc3)(c3ccc(Cl)cc3Cl)CC2)c(Cl)c1 (stereo not drawn) | 800 |
| Cc1ccccc1C1CCN(C2CCC(NC(=O)c3ccc4c(c3)-c3nocc3C(C)O4)CC2)CC1 (stereo not drawn) | 1270 |
| O=C(Nc1ccc(-c2nc3ccccc3[nH]2)cc1)c1ccc([N+](=O)[O-])s1 | 252 |
| COc1ccc(-n2cc(CNCCCn3ccnc3)c(-c3cccc(F)c3)n2)cc1 | 1060 |
| O=C(NC1CCC1)C1CCN(C(c2ccc(Cl)cc2)c2ccc(Cl)cc2)CC1 | 562 |
| CS(=O)(=O)c1ccc(CNCc2cccc(-c3cccc(-c4nc5ccccc5[nH]4)c3)c2)cc1 | 590 |
| N#Cc1cccc(NC(=O)Nc2ccc3c(c2)CN(Cc2c[nH]c4ncccc24)C3)c1 | 800 |
| CCS(=O)(=O)Nc1ccc2[nH]cc(C3CCN(CCC4CCN(C(=O)/C=C/c5ccc(Cl)c(Cl)c5)CC4)CC3)c2c1 | 534 |
| CCN(CC)c1ccc(-c2nc3cc(Cl)cnc3[nH]2)cc1 | 1130 |
